From patent US12071431B2, “Pyridin-sulfonamide compounds for the treatment of conditions related to interleukin 1 beta” (ALLINKY BIOPHARMA, priority 2018, dated 2024)

What was measured:
p38 MAPK = p38 MAPK (Homo sapiens, UniProt Q16539); assay: In vitro binding of p38 MAPK, SPRi
Protocol: Example 14—In Vitro Binding of p38 MAPK
(§1) Various concentrations of p38 MAPK dissolved in water were manually printed onto a bare gold-coated (thickness 47 nm) PlexArray Nanocapture Sensor Chip (Plexera Bioscience, Seattle, WA, US) at 40% humidity. Each concentration was printed in replicate, and each spot contained 0.2 μL of protein solution. The chip was incubated in 80% humidity at 4° C. for overnight, and rinsed with 10×PBST for 10 min, 1×PBST for 10 min, and deionized water twice for 10 min. The chip was then blocked with 5% (w/v) non-fat milk in water overnight, and washed with 10×PBST for 10 min, 1×PBST for 10 min, and deionized water twice for 10 min before being dried under a stream of nitrogen prior to use.
(§2) Surface Plasmon Resonance Imaging (SPRi) measurements were performed with PlexAray HT (Plexera Bioscience, Seattle, WA, US). Collimated light (660 nm) passes through the coupling prism, reflects off the SPR-active gold surface, and is received by the CCD camera. Buffers and samples were injected by a non-pulsatile piston pump into the 30 μL flowcell that was mounted on the coupling prism. Each measurement cycle contained four steps: washing with PBST running buffer at a constant rate of 2 μL/s to obtain a stable baseline, sample injection at 5 μL/s for binding, surface washing with PBST at 2 μL/s for 300 s, and regeneration with 0.5% (v/v) H3PO4 at 2 μL/s for 300 s. All the measurements were performed at 4° C.
The signal changes after binding and washing (in AU) are recorded as the assay value. Selected protein-grafted regions in the SPR images were analyzed, and the average reflectivity variations of the chosen areas were plotted as a function of time. Real-time binding signals were recorded and analyzed by Data Analysis Module (DAM, Plexera Bioscience, Seattle, WA, US). Kinetic analysis was performed using BIAevaluation 4.1 software (Biacore, Inc.).

Recombinant Human MAPK8 = Recombinant Human MAPK8 (Homo sapiens, UniProt P45983); assay: In vitro binding of JNK1 (MAPK8), SPRi; settings: 4° C.
Protocol: Example 13—In Vitro Binding of JNK1 (MAPK8)
as §1, with “concentrations of Recombinant Human MAPK8 dissolved in” for “concentrations of p38 MAPK dissolved in”, “μL of the protein solution.” for “μL of protein solution.”, “4° C. overnight, and” for “4° C. for overnight, and”
as §2
The signal changes after binding and washing were recorded in AU as the assay value. Selected protein-grafted regions in the SPR images were analyzed, and the average reflectivity variations of the chosen areas were plotted as a function of time. Real-time binding signals were recorded and analyzed by Data Analysis Module (DAM, Plexera Bioscience, Seattle, WA, US). Kinetic analysis was performed using BIAevaluation 4.1 software (Biacore, Inc.).

[1] = tested on: Non-Alcoholic Steatohepatitis (NASH) in male C57BL/6 mice; assay: Treatment of non-alcoholic steatohepatitis (NASH) in male C57BL/6 mice (streptozotocin + high-fat diet); type: in vivo
Protocol: Example 15: Effect of Compound 5 and 7 in the Treatment of Non-Alcoholic Steatohepatitis (NASH) in Male C57BL/6 Mice
Timed pregnant mice (n=30) were selected for the study. The delivered pups were subcutaneously injected on the post-natal day 2 (PND-2) with 200 μg of Streptozotocin and were allowed to remain with the mother until they reached the weanling age. After weanling, the male pups were selected and fed with 60% kcal fat diet (Research Diet-D12492) for the next 2 weeks. All the animals were observed twice daily for clinical signs.
Mice were dosed with vehicle, test compounds and reference compound (elafibranor) twice daily morning (9.00 AM) and evening before the start of dark cycle (6:00 PM) from day 0 to 28.
Animal body weight measurements were made daily for the complete duration of the experiment.
Animals were dosed for 28 days (from week 6 to 10) with the test and reference compounds.
Blood glucose was estimated before the treatment start and on the termination day 28. Serum ALT and AST levels were measured from the plasma before the treatment start and on day 28.
Histopathology analysis including H&E staining, Masson's trichrome staining and Oil-Red-O (ORO) staining was performed for the liver tissues.
All the H&E stained tissue sections were examined by light microscopy. As per the below grading system (Kleiner et al., 2005) in 200× objective lens, NAFLD scoring was done for steatosis, lobular inflammation and hepatic ballooning.
All the Masson's trichrome stained tissue sections were examined by light microscopy in 100× objective lens. Randomly selected five fields (approx 684.85 μm×917.11 m per field) from each liver were subjected to collagen proportion area measurement by using Image Pro Premier 9.1 software. The percentage of collagen proportion area was calculated by dividing collagen tissue area by total tissue area.
All the Oil-Red-O stained tissue sections were examined by light microscopy in 100× objective lens. Randomly selected five fields (approximately 688.33 μm×922.45 μm per field) from each liver were subjected to measure stained area by using Image Pro Premier 9.1 software. The percentage of stained area was calculated by dividing lipid stained tissue area by total tissue area.

[2] = 3 mg/kg dose, twice daily, 28 days, H&E NAFLD scoring

Chain of p38 MAPK (Q16539 2-360): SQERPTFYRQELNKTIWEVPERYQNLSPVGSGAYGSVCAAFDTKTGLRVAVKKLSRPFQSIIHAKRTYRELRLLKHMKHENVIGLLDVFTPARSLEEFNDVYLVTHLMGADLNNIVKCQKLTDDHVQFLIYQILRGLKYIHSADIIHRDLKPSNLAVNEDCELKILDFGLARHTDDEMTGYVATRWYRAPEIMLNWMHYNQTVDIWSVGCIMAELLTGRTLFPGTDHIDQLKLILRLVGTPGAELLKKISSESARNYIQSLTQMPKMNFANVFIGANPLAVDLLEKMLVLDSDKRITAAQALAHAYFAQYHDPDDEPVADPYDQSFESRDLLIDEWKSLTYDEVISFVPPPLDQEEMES
Chain of Recombinant Human MAPK8 (P45983 whole entry): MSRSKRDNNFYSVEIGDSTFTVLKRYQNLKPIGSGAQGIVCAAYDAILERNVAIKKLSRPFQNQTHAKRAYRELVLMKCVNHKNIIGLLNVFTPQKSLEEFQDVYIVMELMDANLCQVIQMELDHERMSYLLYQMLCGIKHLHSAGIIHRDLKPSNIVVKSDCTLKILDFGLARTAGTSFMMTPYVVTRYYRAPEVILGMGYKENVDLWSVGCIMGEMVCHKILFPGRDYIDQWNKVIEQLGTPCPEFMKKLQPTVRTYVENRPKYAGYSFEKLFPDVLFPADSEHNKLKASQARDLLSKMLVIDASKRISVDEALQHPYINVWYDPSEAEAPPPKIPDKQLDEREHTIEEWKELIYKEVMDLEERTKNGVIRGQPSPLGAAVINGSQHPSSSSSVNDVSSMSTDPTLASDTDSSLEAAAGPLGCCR

**Q.** `CCOc1ccc(Oc2cc(S(=O)(=O)N(C)C)cnc2N2CCC(Oc3ccc(Cl)cc3)CC2)cc1` [Compound 7] was tested. Which Kd (p38 MAPK; SPRi, 4° C., p38 MAPK, read-out: equilibrium dissociation constant (KD Value)) did it give?
**A.** 11.9 nM

**Q.** What about the kon (p38 MAPK; read-out: Ka) of the same compound?
**A.** 20800 M⁻¹ s⁻¹

**Q.** And the koff (p38 MAPK; read-out: Kd)?
**A.** 0.000248 s⁻¹

**Q.** And the kon (Recombinant Human MAPK8; association rate, read-out: Ka)?
**A.** 22900 M⁻¹ s⁻¹

**Q.** And the koff (Recombinant Human MAPK8; dissociation rate)?
**A.** 0.000782 s⁻¹

**Q.** And the Kd (Recombinant Human MAPK8; read-out: equilibrium dissociation constant (KD Value))?
**A.** 34.1 nM

**Q.** And the “NAFLD activity score (NAS)” value ([1]; 3 mg/kg dose, twice daily, 28 days, FIG. 1)?
**A.** better NAS score than Elafibranor

**Q.** And the “lobular inflammation in the liver” value [1, 2]?
**A.** significantly reduced

**Q.** And the “steatosis in the liver” value [1, 2]?
**A.** significantly reduced

**Q.** And the “hepatomegaly and liver to body weight ratio” value ([1]; 28 days of treatment, FIG. 3)?
**A.** did not show any hepatomegaly and increase in liver to body weight ratio

**Q.** And the “Serum AST levels” value ([1]; after 28 days of treatment, FIG. 2)?
**A.** significantly reduced
